Results on 71 molecules are retold here after patent publication US4973587A, “3-arylcarbonyl-1-aminoalkyl-1H-indole-containing antiglaucoma method” (Sterling Drug Inc., priority 1990, dated 1990).

In general, IC50 refers to the concentration that gives 50% inhibition. A lower IC50 goes with greater potency.

Some results are limits rather than exact numbers.

One assay deals with mouse vas deferens. The assay is described as follows: mouse vas deferens test (MVD). The class given is cell-based. The note with it: Mus musculus, inhibition of contractions in mouse vas deferens preparation in vitro; active at 5.0 μM or less. The source says:
Med. Assoc. 217, 1392 (1971)]. […] Opth 7, 921-923 (1975); Green and Pederson, Effect of delta-9 Tetrahydrocannabinol on Aqueous Dynamics and Ciliary Body Permeability in the Rabbit Eye., Exptl. Eye Research 15, 499-507 (1973); Colasanti, Craig and Allara, Intraocular Pressure, Ocular Toxicity and Neurotoxicity after Administration of Cannabinol or Cannibigerol, Exptl. Eye Research 39, 252-259 (1984)]. Similarly, synthetic cannabinoids also reduce intraocular pressure [Green, Symunds, Oliver and Elijah, Intraocular Pressure Following Systemic Administration of Cannabinoids, Curr. Eye Research 2, 247-253 (1982); Tiedeman, Shields, Weber, Crow, Coccetto, Harris and Howes, Ophthalmology., 88, 270-277 (1981); Colasanti et al., supra]. Cannabinoid receptor binding sites can be defined as those to which radio-labelled 4-(1,1-dimethylheptyl)-2,3'-dihydroxy-6'alpha-(3-hydroxypropyl)-1',2',3',4',5',6'-hexahydrobiphenyl (CP 55940) binds in a specific and saturable manner, and the binding sites are heterogeneously distributed in the brain [Devane, Dysarz, Johnson, Melvin and Howlett, Determination and Characterization of a Cannabinoid Receptor in Rat Brain, Molecular Pharm. 34, 605-613 (1988)]. Natural and synthetic cannabinoids and representative examples of the compounds of the present invention bind to CP 55940 binding sites. […] It is believed that agonist activity at the cannabinoid receptor mediates the anti-glaucoma actions of cannabinoids, and that agonist activity at this receptor correlates with ocular pressure lowering actions in man.
`Cc1c(C(=O)c2ccc3c(c2)OCO3)c2ccccc2n1CCN1CCOCC1` [Example 1-O] yielded an IC50 of 1300 nM.

Take `COc1cccc(C(=O)c2c(C)n(CCN3CCOCC3)c3ccccc23)c1` [Example 1AA]: the concentration for half-maximal inhibition (IC50) came to 200 nM.

The molecule `COc1ccc(C(=O)c2c(C)n(CCN3CCOCC3)c3ccccc23)cc1OC` [Example 1AB] yielded an IC50 of 68 nM.

As to `Cc1c(C(=O)c2ccccc2)c2ccccc2n1CCN1CCOCC1` [Example 1AE], half-maximal inhibition (IC50) required 700 nM.

In turn, `O=C(c1ccccc1)c1cn(CCN2CCOCC2)c2ccccc12` [Example 1AF] came in with an IC50 of 1100 nM.

As to `Cc1c(C(=O)c2ccc(Cl)cc2)c2ccccc2n1CCN1CCOCC1` [Example 1AG], the IC50 amounted to 560 nM.

With `Cc1c(C(=O)c2ccccc2)c2ccccc2n1C(C)CN1CCOCC1` (centres unmarked) [Example 1AK], it took 900 nM to reach half-maximal inhibition (IC50).

`COc1ccc(C(=O)c2c(C)n(CCN3CCOCC3)c3ccccc23)c2ccccc12` [Example 1AV] returned an IC50 of 26 nM.

Molecule `COc1ccc2cc(C(=O)c3c(C)n(CCN4CCOCC4)c4ccccc34)ccc2c1` [Example 1AW] returned an IC50 of 460 nM.

Molecule `COc1ccc(C(=O)c2cn(CCCN3CCOCC3)c3ccc(F)cc23)cc1` [Example 1AX] displayed an IC50 of more than 10000 nM.

`Cc1c(C(=O)c2cccc3c2OCO3)c2ccccc2n1CCN1CCOCC1` [Example 1BJ] yielded an IC50 of 310 nM.

On to `Cc1cccc(C)c1C(=O)c1c(C)n(CCN2CCOCC2)c2ccccc12` [Example 1BO], for which the IC50 came out at 1600 nM.

Regarding `COc1cccc(C(=O)c2c(C)n(CCN3CCOCC3)c3ccccc23)c1OC` [Example 1BP], the IC50 is 260 nM.

`COc1cc(OC)cc(C(=O)c2c(C)n(CCN3CCOCC3)c3ccccc23)c1` [Example 1BQ] yielded an IC50 of 420 nM.

The molecule `Cc1c(C(=O)c2cccc3ccccc23)c2ccccc2n1CCCN1CCOCC1` [Example 1BU] came in with an IC50 of 111 nM.

Turning to `Cc1ccc2c(C(=O)c3cccc4ccccc34)c(C)n(CCN3CCOCC3)c2c1` [Example 1BV], inhibition was half-maximal at 15 nM (IC50).

On to `O=C(c1cccc2ccccc12)c1cn(CCN2CCOCC2)c2ccc(Br)cc12` [Example 1BW], for which the IC50 is 20 nM.

In turn, `CC(Cn1cc(C(=O)c2cccc3ccccc23)c2ccccc21)N1CCOCC1` (centres unmarked) [Example 1BX] registered an IC50 of 60 nM.

`COc1ccc(C(=O)c2cn(CCCN3CCOCC3)c3ccccc23)cc1` [Example 1BZ] registered an IC50 of 4300 nM.

Consider `COc1cc(C(=O)c2c(C)n(CCN3CCOCC3)c3ccccc23)cc(OC)c1OC` [Example 1CB], for which 90 nM corresponded to half-maximal inhibition (IC50).

Molecule `COc1ccc(C(=O)c2cn(CCCN3CCOCC3)c3c(C)cccc23)cc1` [Example 1CD] displayed an IC50 of 40 nM.

`O=C(c1cccc2ccccc12)c1cn(CCN2CCOCC2)c2ccc(F)cc12` [Example 1CE] returned an IC50 of 7 nM.

Turning to `Cc1c(C(=O)c2cccc3cc4ccccc4cc23)c2ccccc2n1CCN1CCOCC1` [Example 1CF], it took 60 nM to reach half-maximal inhibition (IC50).

The molecule `Cc1c(C(=O)c2cc3ccccc3c3ccccc23)c2ccccc2n1CCN1CCOCC1` [Example 1CG] came in with an IC50 of 170 nM.

Consider `COc1ccc(C(=O)c2c(C)n(CCN3CCCC3)c3ccccc23)cc1` [Example 1CI], for which the IC50 stood at 240 nM.

For the molecule `COc1ccc(C(=O)c2c(C)n(CCCN3CCCC3)c3ccccc23)cc1` [Example 1CJ], the IC50 is more than 10000 nM.

In turn, `CSc1ccc(C(=O)c2c(C)n(CCN3CCOCC3)c3ccccc23)cc1` [Example 1C] yielded an IC50 of 610 nM.

As to `COc1ccc(C(=O)c2c(C)n(CCN3CCOCC3)c3c(C)cccc23)cc1` [Example 1D], it took 178 nM to reach half-maximal inhibition (IC50).

`COc1ccc(C(=O)c2c(C)n(CCN3CCOCC3)c3ccc(F)cc23)cc1` [Example 1E]: the half-maximal inhibitory concentration (IC50) is 120 nM.

For `COc1ccc(C(=O)c2c(C)n(CCCN3CCOCC3)c3ccccc23)cc1` [Example 1H], inhibition was half-maximal at 360 nM (IC50).

As to `COc1ccc(C(=O)c2c(C)n(CCN3CCOCC3)c3c(F)cccc23)cc1` [Example 1J], inhibition was half-maximal at 73 nM (IC50).

`COc1ccc(C(=O)c2c(C)n(CCN3CCOCC3)c3c(OC)cccc23)cc1` [Example 1K] gave an IC50 of 260 nM.

For `COc1ccc(C(=O)c2c(C)n(CCN3CCOCC3)c3cc(Cl)ccc23)cc1` [Example 1L], the IC50 was determined as 540 nM.

Regarding `Cc1c(C(=O)c2cc3ccccc3o2)c2ccccc2n1CCN1CCOCC1` [Example 1P], it took 320 nM to reach half-maximal inhibition (IC50).

`COc1ccccc1C(=O)c1c(C)n(CCN2CCOCC2)c2ccccc12` [Example 1R]: half-maximal inhibition (IC50) required 90 nM.

For `Cc1c(C(=O)c2ccc3ccccc3c2)c2ccccc2n1CCN1CCOCC1` [Example 1S], inhibition was half-maximal at 50 nM (IC50).

With `Cc1c(C(=O)c2cccc(F)c2)c2ccccc2n1CCN1CCOCC1` [Example 1U], 1900 nM corresponded to half-maximal inhibition (IC50).

Take `CCc1ccc(C(=O)c2c(C)n(CCN3CCOCC3)c3ccccc23)cc1` [Example 1X]: the IC50 was 71 nM.

Molecule `Cc1ccc(C(=O)c2c(C)n(CCN3CCOCC3)c3ccccc23)cc1` [Example 1Z] returned an IC50 of 440 nM.

For the molecule `Cc1c(C(=O)c2ccc3occc3c2)c2ccccc2n1CCN1CCOCC1` [Example 2AA], the 50% inhibitory concentration (IC50) worked out at 125 nM.

The molecule `COc1ccc(C(=O)c2c(C)n(CCN3CCOCC3)c3ccccc23)c(F)c1` [Example 2AD] displayed an IC50 of 180 nM.

Molecule `Cc1c(C(=O)c2c(F)cccc2F)c2ccccc2n1CCN1CCOCC1` [Example 2AG] registered an IC50 of 370 nM.

`Cc1cc(C)cc(C(=O)c2c(C)n(CCN3CCOCC3)c3ccccc23)c1` [Example 2AJ] showed an IC50 of 390 nM.

As for `Cc1c(C(=O)c2cccc(F)c2)c2ccccc2n1C(C)CN1CCOCC1` (centres unmarked) [Example 2AM], the midpoint of inhibition, the IC50, lay at 860 nM.

`Cc1c(C(=O)c2ccc(Br)cc2)c2ccccc2n1CCN1CCOCC1` [Example 2AR] showed an IC50 of 620 nM.

`Cc1c(C(=O)c2ccc(Br)c3ccccc23)c2ccccc2n1CCN1CCOCC1` [Example 2AT]: the IC50 worked out at 34 nM.

`COc1ccc(C(=O)c2cn(C(C)CN3CCOCC3)c3ccccc23)cc1` (centres unmarked) [Example 2AU] showed an IC50 of 3700 nM.

Molecule `CCC(CN1CCOCC1)n1c(C)c(C(=O)c2ccc3ccccc3c2)c2ccccc21` (centres unmarked) [Example 2AV] showed an IC50 of 91 nM.

Take `O=C(c1ccc(Br)c2ccccc12)c1cn(CCN2CCOCC2)c2ccccc12` [Example 2AW]: the IC50 was 5 nM.

Take `O=C(c1cccc2ccccc12)c1cn(CCCN2CCOCC2)c2ccccc12` [Example 2AX]: the midpoint of inhibition, the IC50, lay at 10 nM.

`Cc1ccc2c(C(=O)c3cccc4ccccc34)cn(CCN3CCOCC3)c2c1` [Example 2AY] yielded an IC50 of 2 nM.

Turning to `Cc1c(C(=O)c2ccc3ncccc3c2)c2ccccc2n1CCN1CCOCC1` [Example 2AZ], the IC50 came out at 102 nM.

The molecule `Cc1c(C(=O)c2ccc3cccnc3c2)c2ccccc2n1CCN1CCOCC1` [Example 2BA] gave a concentration for half-maximal inhibition (IC50) of 93 nM.

Molecule `Cc1c(C(=O)c2cccc3cccnc23)c2ccccc2n1CCN1CCOCC1` [Example 2BB] displayed an IC50 of 129 nM.

In turn, `Cc1c(C(=O)c2cnc3ccccc3c2)c2ccccc2n1CCN1CCOCC1` [Example 2BC] showed an IC50 of 570 nM.

On to `Cc1c(C(=O)c2ccc3ccccc3n2)c2ccccc2n1CCN1CCOCC1` [Example 2BD], for which the IC50 is 99 nM.

Regarding `Cc1c(C(=O)c2ccnc3ccccc23)c2ccccc2n1CCN1CCOCC1` [Example 2BE], the IC50 worked out at 115 nM.

As to `O=C(c1ccc2ncccc2c1)c1cn(CCN2CCOCC2)c2ccccc12` [Example 2BF], the IC50 stood at 142 nM.

In the case of `O=C(c1cccc2ccccc12)c1c(Cl)n(CCN2CCOCC2)c2ccccc12` [Example 2BG], the IC50 is 6 nM.

As for `Cc1c(C(=O)c2cccc3ccoc23)c2ccccc2n1CCN1CCOCC1` [Example 2BI], inhibition was half-maximal at 17 nM (IC50).

Regarding `O=C(c1cccc2occc12)c1cn(CCN2CCOCC2)c2ccccc12` [Example 2BJ], the IC50 is 7 nM.

For the molecule `O=C(c1ccc2ccoc2c1)c1cn(CCN2CCOCC2)c2ccccc12` [Example 2BK], inhibition was half-maximal at 40 nM (IC50).

Molecule `O=C(c1cn(CCN2CCOCC2)c2ccccc12)c1cccc2ccoc12` [Example 2BL] returned an IC50 of 4 nM.

In turn, `Cc1c(C(=O)Cc2ccccc2)c2ccccc2n1CCN1CCOCC1` [Example 2BM] returned an IC50 of 174 nM.

Take `COc1ccc(C=CC(=O)c2c(C)n(CCN3CCOCC3)c3ccccc23)cc1` [Example 2BN]: the IC50 was determined as 138 nM.

Consider `Cc1c(C(=O)C=Cc2cccc3ccccc23)c2ccccc2n1CCN1CCOCC1` [Example 2BO], for which the midpoint of inhibition, the IC50, lay at 130 nM.

For `O=C(c1cn(CCN2CCOCC2)c2ccccc12)C1CCCc2ccccc21` (centres unmarked) [Example 2BP], inhibition was half-maximal at 10 nM (IC50).

Molecule `O=C(c1ccccc1F)c1cn(CCN2CCOCC2)c2ccccc12` [Example 2BQ] had an IC50 of 500 nM.

The same assay, now with this note: inhibition of contractions in mouse vas deferens preparation in vitro; active at 5.0 μM or less.
Molecule `O=C(c1ccccc1)c1cn(CCN2CCOCC2)c2ccccc12` [Example 1CH] yielded an IC50 of 1600 nM.

In turn, `COc1ccc(C(=O)c2c(C)n(CCN3CCOCC3)c3ccccc23)cc1` [Example 1F] showed an IC50 of 1400 nM.

In the case of `Cc1c(C(=O)c2ccc3cccnc3c2)c2ccccc2n1CCN1CCOCC1` [Example 2BH], inhibition was half-maximal at 88 nM (IC50).
